Results reported in patent US7101849B1 (The University of Queensland, priority 1998, dated 2006).

Tests used:
peripheral channels = details: in vivo; cited from earlier work
N-type calcium channels = N-type calcium channels (Homo sapiens, UniProt Q00975); details: cited from earlier work
P/Q-type channels = P/Q-type channels (Homo sapiens, UniProt O00555); details: cited from earlier work
N-type calcium channel = N-type calcium channel (Rattus norvegicus, UniProt Q02294); format: binding
N-type calcium channel, sequence (Q02294 whole entry, looked up): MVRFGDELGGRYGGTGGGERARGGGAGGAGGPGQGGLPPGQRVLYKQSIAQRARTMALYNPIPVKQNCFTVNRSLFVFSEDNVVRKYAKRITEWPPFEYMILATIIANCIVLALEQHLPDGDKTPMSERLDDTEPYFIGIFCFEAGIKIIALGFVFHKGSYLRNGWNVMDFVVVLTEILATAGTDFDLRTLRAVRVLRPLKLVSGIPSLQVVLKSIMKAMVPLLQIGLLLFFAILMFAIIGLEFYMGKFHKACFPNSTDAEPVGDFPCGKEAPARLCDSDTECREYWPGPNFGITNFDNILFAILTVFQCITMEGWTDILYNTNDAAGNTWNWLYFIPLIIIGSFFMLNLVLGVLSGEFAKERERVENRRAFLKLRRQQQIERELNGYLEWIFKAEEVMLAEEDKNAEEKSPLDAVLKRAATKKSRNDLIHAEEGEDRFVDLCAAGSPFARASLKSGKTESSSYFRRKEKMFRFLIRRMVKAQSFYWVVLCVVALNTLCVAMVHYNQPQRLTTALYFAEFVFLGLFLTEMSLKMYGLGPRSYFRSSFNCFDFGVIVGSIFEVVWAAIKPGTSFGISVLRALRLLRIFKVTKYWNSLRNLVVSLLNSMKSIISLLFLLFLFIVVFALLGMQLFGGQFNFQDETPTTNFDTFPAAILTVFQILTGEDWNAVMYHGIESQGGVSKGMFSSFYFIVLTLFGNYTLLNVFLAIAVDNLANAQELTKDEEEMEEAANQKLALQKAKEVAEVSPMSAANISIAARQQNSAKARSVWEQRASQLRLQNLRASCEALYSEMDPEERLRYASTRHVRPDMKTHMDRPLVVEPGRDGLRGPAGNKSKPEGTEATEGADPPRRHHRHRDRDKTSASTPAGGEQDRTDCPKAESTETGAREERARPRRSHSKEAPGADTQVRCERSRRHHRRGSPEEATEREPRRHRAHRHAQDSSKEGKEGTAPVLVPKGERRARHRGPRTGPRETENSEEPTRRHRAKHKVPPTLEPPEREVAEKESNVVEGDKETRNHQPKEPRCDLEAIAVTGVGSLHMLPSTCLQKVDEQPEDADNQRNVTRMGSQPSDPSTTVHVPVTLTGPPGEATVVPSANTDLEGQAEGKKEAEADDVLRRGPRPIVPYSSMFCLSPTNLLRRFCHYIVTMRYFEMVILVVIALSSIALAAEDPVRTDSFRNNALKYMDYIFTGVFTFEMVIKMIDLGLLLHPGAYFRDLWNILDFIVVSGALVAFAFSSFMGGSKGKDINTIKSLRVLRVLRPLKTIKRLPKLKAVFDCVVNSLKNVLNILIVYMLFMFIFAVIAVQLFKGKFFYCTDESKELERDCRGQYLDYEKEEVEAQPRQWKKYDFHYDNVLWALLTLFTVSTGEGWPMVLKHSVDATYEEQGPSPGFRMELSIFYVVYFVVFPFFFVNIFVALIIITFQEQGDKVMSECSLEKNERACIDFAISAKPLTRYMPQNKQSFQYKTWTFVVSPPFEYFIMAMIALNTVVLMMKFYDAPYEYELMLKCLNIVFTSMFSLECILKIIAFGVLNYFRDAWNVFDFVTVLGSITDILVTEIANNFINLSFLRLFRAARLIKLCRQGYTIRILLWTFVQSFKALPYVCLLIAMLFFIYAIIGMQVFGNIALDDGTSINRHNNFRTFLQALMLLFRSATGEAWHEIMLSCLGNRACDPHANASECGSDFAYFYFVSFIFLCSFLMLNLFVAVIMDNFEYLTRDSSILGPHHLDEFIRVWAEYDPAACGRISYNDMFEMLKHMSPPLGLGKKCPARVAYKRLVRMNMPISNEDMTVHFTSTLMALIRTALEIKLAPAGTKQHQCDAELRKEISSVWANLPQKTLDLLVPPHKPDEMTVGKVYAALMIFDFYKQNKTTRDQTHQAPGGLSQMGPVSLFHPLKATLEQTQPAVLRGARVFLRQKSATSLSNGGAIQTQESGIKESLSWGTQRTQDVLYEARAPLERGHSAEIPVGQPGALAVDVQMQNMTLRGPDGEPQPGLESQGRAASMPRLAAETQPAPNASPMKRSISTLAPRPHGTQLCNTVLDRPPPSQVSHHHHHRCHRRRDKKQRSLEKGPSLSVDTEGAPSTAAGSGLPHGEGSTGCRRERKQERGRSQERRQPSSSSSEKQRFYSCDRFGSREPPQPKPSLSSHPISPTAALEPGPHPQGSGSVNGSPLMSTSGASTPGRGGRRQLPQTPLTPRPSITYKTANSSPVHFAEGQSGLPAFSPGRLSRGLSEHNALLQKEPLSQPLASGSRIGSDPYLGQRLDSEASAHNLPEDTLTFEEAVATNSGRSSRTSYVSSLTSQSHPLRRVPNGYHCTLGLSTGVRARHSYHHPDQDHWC

N-type calcium channels, sequence (Q00975 whole entry, looked up): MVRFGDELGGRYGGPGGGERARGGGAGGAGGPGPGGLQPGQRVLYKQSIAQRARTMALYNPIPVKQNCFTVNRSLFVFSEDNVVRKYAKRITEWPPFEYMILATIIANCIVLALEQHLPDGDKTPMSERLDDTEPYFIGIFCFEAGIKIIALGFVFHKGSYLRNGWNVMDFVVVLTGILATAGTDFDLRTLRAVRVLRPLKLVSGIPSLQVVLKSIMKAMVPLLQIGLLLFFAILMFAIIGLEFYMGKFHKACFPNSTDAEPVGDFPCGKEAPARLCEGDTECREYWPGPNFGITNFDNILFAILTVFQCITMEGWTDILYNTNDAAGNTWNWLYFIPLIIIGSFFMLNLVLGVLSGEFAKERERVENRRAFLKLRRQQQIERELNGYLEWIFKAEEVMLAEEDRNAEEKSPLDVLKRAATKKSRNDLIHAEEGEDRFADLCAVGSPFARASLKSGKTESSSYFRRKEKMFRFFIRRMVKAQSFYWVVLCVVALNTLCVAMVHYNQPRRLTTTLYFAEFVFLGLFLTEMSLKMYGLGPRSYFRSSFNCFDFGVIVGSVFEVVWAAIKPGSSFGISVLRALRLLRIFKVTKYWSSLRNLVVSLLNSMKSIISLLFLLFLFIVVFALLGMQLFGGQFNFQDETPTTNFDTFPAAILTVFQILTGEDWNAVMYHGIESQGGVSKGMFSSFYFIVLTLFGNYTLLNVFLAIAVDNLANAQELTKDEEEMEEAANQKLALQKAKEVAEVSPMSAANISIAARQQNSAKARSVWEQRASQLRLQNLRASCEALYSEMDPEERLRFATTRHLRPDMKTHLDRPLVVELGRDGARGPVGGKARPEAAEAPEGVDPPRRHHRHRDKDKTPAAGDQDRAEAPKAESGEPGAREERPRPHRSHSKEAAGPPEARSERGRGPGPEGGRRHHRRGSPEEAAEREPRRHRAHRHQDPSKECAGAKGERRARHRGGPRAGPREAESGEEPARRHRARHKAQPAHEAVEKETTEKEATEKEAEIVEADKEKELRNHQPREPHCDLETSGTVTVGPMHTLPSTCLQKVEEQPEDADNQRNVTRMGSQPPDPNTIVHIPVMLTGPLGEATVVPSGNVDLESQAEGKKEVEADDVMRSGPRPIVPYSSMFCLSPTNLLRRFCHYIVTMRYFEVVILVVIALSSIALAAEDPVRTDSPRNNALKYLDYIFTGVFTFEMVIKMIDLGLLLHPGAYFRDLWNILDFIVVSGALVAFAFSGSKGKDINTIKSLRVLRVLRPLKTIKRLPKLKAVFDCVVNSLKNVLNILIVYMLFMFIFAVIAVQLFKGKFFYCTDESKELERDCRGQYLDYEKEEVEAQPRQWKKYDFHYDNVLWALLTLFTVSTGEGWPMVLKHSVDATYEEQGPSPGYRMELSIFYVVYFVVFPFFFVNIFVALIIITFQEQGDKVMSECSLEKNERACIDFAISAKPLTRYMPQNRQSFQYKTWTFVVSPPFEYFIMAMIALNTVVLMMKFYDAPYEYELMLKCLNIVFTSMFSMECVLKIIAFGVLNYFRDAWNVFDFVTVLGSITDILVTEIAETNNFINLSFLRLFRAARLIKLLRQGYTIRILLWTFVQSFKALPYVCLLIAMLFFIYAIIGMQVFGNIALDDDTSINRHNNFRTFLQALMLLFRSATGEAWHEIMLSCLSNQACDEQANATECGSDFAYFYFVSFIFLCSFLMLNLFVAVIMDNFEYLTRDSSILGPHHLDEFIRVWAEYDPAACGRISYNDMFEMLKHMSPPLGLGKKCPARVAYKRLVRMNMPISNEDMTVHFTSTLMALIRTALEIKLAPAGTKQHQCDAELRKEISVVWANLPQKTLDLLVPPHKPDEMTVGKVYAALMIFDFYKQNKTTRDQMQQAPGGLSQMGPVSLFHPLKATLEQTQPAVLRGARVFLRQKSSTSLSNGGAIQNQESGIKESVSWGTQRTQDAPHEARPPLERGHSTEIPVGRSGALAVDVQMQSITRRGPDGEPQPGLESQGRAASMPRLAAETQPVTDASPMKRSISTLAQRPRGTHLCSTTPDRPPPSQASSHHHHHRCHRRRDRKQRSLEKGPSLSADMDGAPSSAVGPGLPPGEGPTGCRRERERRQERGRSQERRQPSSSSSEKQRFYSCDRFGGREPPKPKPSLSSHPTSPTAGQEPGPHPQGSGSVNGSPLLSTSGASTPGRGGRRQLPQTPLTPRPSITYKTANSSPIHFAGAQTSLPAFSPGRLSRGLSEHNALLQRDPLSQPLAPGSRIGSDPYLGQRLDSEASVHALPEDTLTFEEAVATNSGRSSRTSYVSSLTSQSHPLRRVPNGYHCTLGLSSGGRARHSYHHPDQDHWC

| Compound | affinity / selectivity for N-type calcium channels (N-type calcium channels) | potency for N-type calcium channel in receptor binding assays (N-type calcium channel) | selectivity for N-type calcium channel over P/Q-type calcium channel in receptor binding assays (N-type calcium channel) | also measured |
| --- | --- | --- | --- | --- |
| CSCC[C@@H]1NC(=O)[C@H](CC(C)C)NC(=O)[C@H](CCCNC(=N)N)NC(=O)[C@H](CO)NC(=O)[C@@H]2CSSC[C@@H]3NC(=O)[C@H](CO)NC(=O)CNC(=O)[C@H]([C@@H](C)O)NC(=O)[C@H](CSSC[C@H](N)C(=O)N[C@@H](CCCCN)C(=O)NCC(=O)N[C@@H](CCCCN)C(=O)NCC(=O)N[C@@H](C)C(=O)N[C@@H](CCCCN)C(=O)N2)NC(=O)[C@H](CSSC[C@@H](C(N)=O)NC(=O)[C@H](CCCCN)NC(=O)CNC(=O)[C@H](CO)NC(=O)[C@H](CCCNC(=N)N)NC3=O)NC(=O)[C@H](CC(=O)O)NC(=O)[C@H](Cc2ccc(O)cc2)NC1=O [SNX-111] |  |  |  | hypotension (peripheral channels): cause hypotension |
| CKGKOAPCRKTMYDCCSGSCGRRGKC [MVIIC] | low affinity |  |  | binding to P/Q-type channels (P/Q-type channels): bind strongly |
| CKSKGAKCSKLMYDCCSGSCSGTVGRC [CVID] |  | high potency | high selectivity |  |
| CKSKGAKCSRLMYDCCSGSCSGTVGRC [R^10-CVID] |  | high potency | high selectivity |  |
| CKSOGSSCSOTSYNCCRSCNOYTKRCY [GVIA] | high level of selectivity |  |  | antagonism of N-type calcium channels (N-type calcium channels): potent antagonist; reversibility of binding to N-type calcium channels (N-type calcium channels): irreversible |
